Key:
[1] = system: ALOMY; assay: Greenhouse test, solo and combination, post-emergence, 20 DAT; format: in vivo, Alopecurus myosuroides
Method: (§1) The test plants have been seeded, separately for each species, in plastic containers in sandy loamy soil containing 5% of organic matter.
(§2) For the post-emergence treatment, the plants were first grown to the 2 leaf station (GS 12) and applied at GS 12-19 depending on the species. The herbicidal compositions were suspended or emulsified in water as distribution medium and sprayed using finely distributing nozzles.
(§3) The plants have been cultivated due to their individual requirements at 10-25° C. and 20-35° C. The plants were irrigated due to their necessity.
(§4) The racemic mixture (±)-2-exo-(2-Methylbenzyloxy)-1-methyl-4-isopropyl-7-oxabicyclo[2.2.1]heptane was used as herbicide A and formulated as emulsifiable concentrate having an active ingredient concentration of 750 g/l.
(§5) Cyhalofop-butyl (herbicide B.5) was used as an emulsifiable concentrate (EC) formulation having an active ingredient concentration of 200 g/l.
(§6) Metsulfuron-methyl (herbicide B.53) was used as a water soluble granule (SG) formulation having an active ingredient concentration of 20%.
(§7) Bispyribac-sodium (herbicide B.23) was used as a soluble concentrate (SL) formulation having an active ingredient concentration of 408 g/l.
(§8) Quizalofop-P-ethyl (herbicide B.217) was used as a suspension concentrate (SC) formulation having an active ingredient concentration of 106 g/l.
(§9) In the following experiments, the herbicidal activity for the individual herbicide compounds (solo and mixture applications) was assessed 20 days after treatment (DAT).
(§10) The evaluation for the damage on undesired weeds caused by the chemical compositions was carried out using a scale from 0 to 100%, compared to the untreated control plants. Here, 0 means no damage and 100 means complete destruction of the plants.
(§11) The plants used in the greenhouse experiments belonged to the following species:
(§12) E=X+Y−(X·Y/100) • where X=effect in percent using herbicide A at an application rate a; • Y=effect in percent using herbicide B at application rate b; • E=expected effect (in %) of herbicide A+herbicide B at application rates a+b.
(§13) The value E corresponds to the effect (plant damage or injury) which is to be expected if the activity of the individual compounds is additive. If the observed effect is higher than the value E calculated according to the Colby equation, a synergistic effect is present.
(§14) Tables 3 to 6 below relate the herbicidal activity, in greenhouse trials, of the individual actives and the combination applied at different rates and ratios, in post-emergence application at 20 days after treatment (DAT).

[2] = system: GALAP; assay: as above; format: in vivo, Galium aparine
Method: as §1, §2, §3, §4, §5, §6, §7, §8, §9, §10, §11, §12, §13, §14

(±)-2-exo-(2-Methylbenzyloxy)-1-methyl-4-isopropyl-7-oxabicyclo[2.2.1]heptane [Herbicide A]
Herbicidal activity ([1]; solo application 62.5 g ai/ha): 30%
Herbicidal activity ([1]; solo application 125 g ai/ha): 55%
Herbicidal activity ([1]; solo application 250 g ai/ha): 70%
Herbicidal activity ([1]; solo application 500 g ai/ha): 80%
Herbicidal activity ([2]; solo application 62.5 g ai/ha): 25%
Herbicidal activity ([2]; solo application 125 g ai/ha): 35%
Herbicidal activity ([2]; solo application 250 g ai/ha): 35%
Herbicidal activity ([2]; solo application 500 g ai/ha): 45%
